Structures are written as SMILES.

This series in a line: method code SF-AS, from DOI: 10.1016/0014-5793(90)81139-f, PMID: 2387393. To be noted: pH 2.0.

As to `COC1=C(OC)C(=O)C(C)=C(C)C1=O`, the log distribution coefficient (logD) – broadly, lipophilicity at a set pH, counting ionised and neutral species – is 1.26.

Compound `COc1c(O)c(OC)c(OC)c(O)c1OC` yielded a logD of 0.39.

Take `COC1=CC(=O)C=C(OC)C1=O`: the pH-dependent lipophilicity (logD) was -0.05.

In the case of `COc1cc(O)ccc1O`, the logD came out at 0.47.

In turn, `CC1=CC(=O)C=CC1=O` came in with a log distribution coefficient (logD) of 0.67.

Compound `COc1cc(O)cc(OC)c1O` came in with a logD of 0.17.

As for `Cc1cc(O)c(C)c(C)c1O`, the logD was 1.69.

For the compound `COC1=CC(=O)C=CC1=O`, the pH-dependent lipophilicity (logD) was determined as 0.27.

On to `COc1c(O)cc(C)c(O)c1OC`, for which the logD was found to be 1.02.

On to `Cc1cc(O)cc(Br)c1O`, for which the log distribution coefficient (logD) was 1.38.

For the compound `CC1=CC(=O)C=C(Br)C1=O`, the pH-dependent lipophilicity (logD) came out at 1.21.

In turn, `COc1c(O)c(C)c(C)c(O)c1OC` displayed a logD of 1.6.

(Values after the SangsterLogP compilation.)
